One substance from PMC8776894 (Communications Biology, 2022) can be followed below.

Where “and” joins values, the source holds several entries; their conditions need not be identical. Equal entries are not always repeated.

Data set [1] concerns platelet aggregation in platelet rich plasma. Description: Platelet aggregation function test. The class given is cell-based. To be noted: VK 0.0091–0.294 µM; rabbit PRP, ADP 6.07 µmol/L, 5 min maximum aggregation rate. As to the method:
Platelet aggregation function test. Venous blood from (normal healthy rabbits) was collected in 3 mL sodium citrate anticoagulation vacuum plastic tubes. The collected venous blood was centrifuged for 10 min at 100 × g at 4℃ to obtain the upper plasma, and the platelet rich plasma (PRP) was prepared, centrifuged again for 10 min at 2000 × g at 4°C to draw the upper plasma, the platelet poor plasma (PPP) was prepared and […] to a platelet concentration of 3×10^8 cells/ml was counted. The adjusted PRP was placed into a four-channel platelet aggregation instrument (Agg RAM, Helena Laboratories, USA) to determine the 5 min maximum platelet aggregation rate with adenosine diphosphate (ADP), arachidonic acid (AA), thrombin, collagen (COL) , and platelet-activating factor (PAF) or saline as inducers (at a final […]
Acute toxicity test. Systemic acute toxicity test by peritoneal injection was performed according to the guideline provided by Center for Drug Evaluation and Research. In addition to the normal group, male mice were randomly divided into the treated groups received a single dose of 1.5 mg/kg, 6 mg/kg, 24 mg/kg, 96 mg/kg and 384 body weight of VK. […]
The obtained plasma was analyzed using an automatic coagulation apparatus (CA1500).

Data set [2] concerns mice. Description: Histological analysis (H&E) of organs in acute toxicity test. The format is in vivo, mouse. Here is the method:
Histological analysis. Organs such as heart, liver, kidney, and brain were excised and fixed in 10% formaldehyde for histological analysis. Their organs were collected and fixed with 4% PFA for 12-18 h, followed by dehydrating using an automatic dehydrator (Leica ASP-300S, Germany) and embedding in paraffin. Then, each sample was coronally cut (4 µm) using a rotatory microtome (Leica RM2245, Germany). The […]
Primary culture of neuron and microglia. Primary cortical neurons (1.0 × 10^5 cells per well in poly-L-lysine-coated 24-well plate) were obtained from fetal C57BL/6 mice of embryonic day 16–17.5, as previously reported1. After careful removal of meninges, cortical tissues were digested in dulbecco's modified eagle medium (DMEM, Gibco) containing 0.05% trypsin (Gibco) at 37 °C for 20 min. DMEM containing 10% FBS (Gibco) was then added to terminate the digestion. The mixture was homogenized by pipetting 120 times and was subsequently filtered with a 100-μm cell strainer (Biologix) and centrifuged at 1000 rpm for 5 min. Then, the cells were collected and resuspended by DMEM supplemented with 10% FBS (Gibco) and penicillin-streptomycin (Gibco).
The suspension was seeded into 24-well plates (10^5 cells/ml), and 4 h later, the medium was changed with Neurobasal medium (Gibco) containing 1% […] and 2% B27 supplement. […]

Data set [3] deals with brain of MCAO mice. Description: Fluorescence imaging of FITC-labeled VK in brain of stroke mice. The format is in vivo, mouse. As to the method: A successful MCAO model was established and these mice were used for subsequent experiments. Immediately after surgery, FITC or FITC-labeled VK were administered intravenously and mice were killed after 30 min to isolate the brain and imaged by an imaging system (IVIS Lumina II). For fluorescent imaging, the brain was immediately collected and kept in the dark for 0, 30, 60, and 90 min after the administration of VK. Frozen sections were prepared according to the above method (seen Morphological Assessment). Images were acquired by confocal microscopy (FV1000 MPE-B, Olympus).

Data set [4] has as its system HT22 cells (OGD/R). Kind of data set: Intracellular ROS (DCFH-DA, flow cytometry). The class given is cell-based, mouse. The note with it: 24-h pretreatment with VK. (In general: Flow cytometry measures light scatter and fluorescence of single cells or particles in a stream.)
Data set [5] deals with MCAO/R mice. Description: Evans blue extravasation, BBB permeability. The class given is in vivo, mouse. More on the design: EB content in damaged (right) hemisphere (Fig.4): unit not given here. The note with it: for EB content in damaged (right) hemisphere (Fig.4): individual animals. As to the method:
Fig. 4 Protective effect of VK on the blood–brain barrier (BBB) in stroke mice. a Experimental design: in addition to the sham group, mice (8–10 weeks, male) were subjected to MCAO for 60 min. Mice were randomized into four groups: sham group, vehicle group, and VK (150 and 300 µg/kg) groups. Mice were administered VK at 0, 4, 22.5, and 46.5 h after MCAO/R and BBB integrity was assessed by Evans blue (EB) and transmission electron microscope (TEM). b Brain samples were stained with EB. c EB content in damaged (right) hemisphere was quantized. d Schematic of BBB. The BBB mainly consists of endothelial cells (EC), pericytes (PC), astrocytes (Ast), neurons, tight junctions (TJs), and the basement membranes (BM). The main components of the BBB are cerebral microvascular ECs joined by TJs, thus restricting exogenous molecules into the brain. e The structure of the BBB was observed by TEM. In the sham group (e1–3), the capillary morphology was regular, the EC and TJ were complete, the thickness of the BM was uniform and continuous around the outside of EC, and the structure of mitochondria (Mt) was clear. […] The marks with different symbols indicate the constituent cells or matrix of the BBB. Scale bars: 2 µm. Data are expressed as the mean ± SD, n = 5. Values were analyzed using one-way analysis of variance (ANOVA) with the Tukey multiple comparisons test.

The test system of data set [6] is IL-1β, TNF-α, IL-6, IL-8, IL-10 in ischemic cortex. Kind of data set: Cytokine ELISA in ischemic cortex. The class given is in vivo, mouse. To be noted: MCAO/R mice, 48 h. As to the method: Mice were decapitated under anesthesia at 48 h after MCAO/R. The IL-1β (Cat# 88-5019-88), TNF-α (Cat# 88-7324-22), IL-6 (Cat# 88-7064-88), and IL-8 (Cat# 88-8086-22) were purchased from Thermo Fisher Scientific. The levels of these proteins were measured by enzyme-linked immune sorbent assays (ELISA) kits, according to the manufacturer’s recommendations.
Background: In an ELISA, binding on a coated surface is turned into a signal by an enzyme label.

Data set [7] concerns BV2 microglia cells. Description: CCK-8 cytotoxicity in BV2 cells. To be noted: CCK8 assay.
The subject of data set [8] is HT22 hippocampal neuron cells (OGD/R). Kind of data set: HT22 cell viability after OGD/R (CCK8).

Take “Gly-Arg-Pro-Hyp-Gly-Phe-Ser-Pro-Phe-Arg-Ile-Asp [VK, Vespakinin-M]”: the “ADP-induced platelet aggregation vs control group” value in data set [1] is reported as “decreased”. For the same substance, the “karyopyknosis and cellular swelling of hepatocytes in liver” value in data set [2] (VK 96 and 384 mg/kg single i.p.) was “moderate”. Besides, the “histopathology of brain, liver and kidney vs control” value in data set [2] (all treated groups after 14 days, H&E) was “no changes at the cellular level”. Also, in data set [3] (FITC-labeled VK i.v. to stroke mice, brain imaged after 30 min (IVIS Lumina II)), the “accumulation in brain, in vivo imaging” value is “slightly accumulate in the ischemic region”. In addition, in data set [3] (under conditions such as cerebral I/R), the “penetration of BBB and cell membrane (conclusion)” value is “can cross the BBB and cell membrane”. The “OGD-induced ROS levels” value in data set [4] is “rescue the OGD-induced ROS levels”. Moreover, the “EB content in damaged (right) hemisphere (Fig.4)” value in data set [5] (VK 150 µg/kg i.p.) is 0.6116 and 3.907 and 2.036 and 0.849 and 0.3932; in data set [5] (VK 300 µg/kg i.p.), 0.754 and 0.4027 and 0.5261 and 1.381 and 3.67. In data set [5] (VK 150 and 300 µg/kg), the “BBB permeability, EB extravasation” value is on record as “reversed the effect of MCAO-induced on BBB permeability”. In addition, the “IL-10 level in ischemic cortex vs vehicle” value in data set [6] is reported as “increase in IL-10 levels”. Moreover, the “IL-1β, TNF-α, IL-6 and IL-8 levels in cortex of the ischemic hemisphere vs vehicle” value in data set [6] (VK 150 and 300 µg/kg) was “decreased IL-1β, TNF-α, IL-6, and IL-8 levels”. For the same substance, the “concentrations at which VK inhibited growth of BV2 cells” value in data set [7] lay within 73.5 to 735 µM. Besides, the “cell activity of HT22 cells after OGD/R” value in data set [8] is recorded as “enhanced cell activity”.
